The values below come from patent publication US6342494B1, “Carbapenem compounds, use thereof, and intermediate compounds of the same” (Kyoto Pharmaceutical Industries, Ltd., priority 1997, dated 2002).

The conditions of data set [1]: dogs, 20 mg/kg oral, measured as hydrolyzed carbapenem compound (A). The procedure: The compound of the present invention (compound of Example 6, 20 mglkg) was orally administered to dogs (3 per group) and plasma hydrolyzed carbapenem compound (A) concentration at 0.25, 0.5, 1.0, 1.5, 2.0, 3.0, 4.0 and 6.0 hours later was measured by a paper disc method using test bacteria Escherichia coli NIHJ and nutrient agar medium (Difco).

The conditions of data set [2]: dogs, 20 mg/kg oral, measured as hydrolyzed carbapenem compound (A). The method, then:
The compound of the present invention (compound of Example 6, 20 mg/kg) was orally administered to dogs (3 per group) and urinary hydrolyzed carbapenem compound (A) concentration at 0-3, 3-6 and 6-24 hours later was measured by a paper disc method using test bacteria Escherichia coli NIHJ and nutrient agar medium (Difco). The urinary recovery percentage was determined.
The source holds these as a separate data set.

Take `Cc1oc(=O)oc1CN1C[C@@H](SC2=C(C(=O)OCOC(=O)C(C)(C)C)N3C(=O)[C@H]([C@@H](C)O)[C@H]3[C@H]2C)C[C@H]1C(=O)N(C)C.Cl` [Example 6, Pivaloyloxymethyl (1R,5S,6S)-2-{(3S,5S)-[5-N,N-dimethylaminocarbonyl-1-(5-methyl-2-oxo-1,3-dioxolen-4-yl)methyl]pyrrolidin-3-ylthio}-6-[(1R)-1-hydroxyethyl]-1-methylcarbapen-2-em-3-carboxylate hydrochloride]: in data set [1] (0.25 hr), the “concentration in plasma (μg/ml) 0.25 hr” value worked out at 5.06 µg/mL. In data set [1] (0.5 hr), the “concentration in plasma (μg/ml) 0.5 hr” value was 6.56 µg/mL. Further, the “concentration in plasma (μg/ml) 1.0 hr” value in data set [1] (1.0 hr) is 7.60 µg/mL. The “concentration in plasma (μg/ml) 1.5 hr” value in data set [1] (1.5 hr) was found to be 7.67 µg/mL. The “concentration in plasma (μg/ml) 2.0 hr” value in data set [1] (2.0 hr) turned out to be 5.92 µg/mL. Moreover, in data set [1] (3.0 hr), the “concentration in plasma (μg/ml) 3.0 hr” value was found to be 3.68 µg/mL. Besides, the “concentration in plasma (μg/ml) 4.0 hr” value in data set [1] (4.0 hr) is 1.92 µg/mL. For the same compound, in data set [1] (6.0 hr), the “concentration in plasma (μg/ml) 6.0 hr” value was 0.43 µg/mL. Besides, in data set [2] (0-3 hr), the “urinary recovery (%) 0-3 hr” value amounted to 10.3%. In addition, the “urinary recovery (%) 0-24 hr” value in data set [2] (0-24 hr) came out at 13.0%. For the same compound, in data set [2] (3-6 hr), the “urinary recovery (%) 3-6 hr” value was 2.4%. Further, in data set [2] (6-24 hr), the “urinary recovery (%) 6-24 hr” value was found to be 0.3%.
